Literature values in patent US8084059B2, “Antidepressant dosage form” (ALZA Corporation, priority 1993, dated 2011).

Columns and labels:
[1] = system: neuronal uptake of morepinephrine; settings: in vitro
[2] = system: neuronal uptake of dopamine; settings: in vitro
monoamine oxidase = settings: in vitro
[3] = system: reserpine-induced hypothermia; settings: in vivo
effects of levodopa = settings: in vivo
[4] = system: histamine-induced corticotropin release; settings: in vivo
[5] = system: cyclicadenosine monophosphate subsensitivity; settings: after both acute and chronic administration
[6] = humans

## COc1ccc(C(CN(C)C)C2(O)CCCCC2)cc1 (centres unmarked) [1-[2-(dimethylamino)-1-(4-methoxyphenyl)ethyl]cyclohexanol]
[1]
  neuronal uptake of morepinephrine: prevents
[2]
  neuronal uptake of dopamine: prevents
Monoamine oxidase
  inhibition of monoamine oxidase: does not inhibit
[3]
  effect on reserpine-induced hypothermia: antagonizes
Effects of levodopa
  effect on the effects of levodopa: potentiates
[4]
  effect on histamine-induced corticotropin release: reduces
[5]
  cyclicadenosine monophosphate subsensitivity: induces
[6]
  antidepressant activity: excellent
